Assays:
Type in all cases: in vivo, C57BL/6 mice
[1] = Pharmacokinetics study after single oral dose of HP; settings: for Blood drug concentration: 12 h after single oral dose of 50 mg/kg HP; for Blood drug concentration / concentration at 0.08 h / concentration at 0.25 h / concentration at 0.5 h / concentration at 1 h / concentration at 1.5 h / concentration at 2 h / concentration at 3 h / concentration at 4 h / concentration at 8 h / half-life / AUC(0-inf) / AUC(0-t) / Cmax / Tmax / MRT last / MRT inf: mice, n = 5; for Blood drug concentration / concentration at 0.08 h / concentration at 0.25 h / concentration at 0.5 h / concentration at 1 h / concentration at 1.5 h / concentration at 2 h / concentration at 3 h / concentration at 4 h / concentration at 8 h: mean ± SD; for concentration at 0.08 h / concentration at 0.25 h / concentration at 0.5 h / concentration at 1 h / concentration at 1.5 h / concentration at 2 h / concentration at 3 h / concentration at 4 h / concentration at 8 h / half-life / AUC(0-inf) / AUC(0-t) / Cmax / Tmax / MRT last / MRT inf: male, C57BL/6, mouse, plasma; for concentration at 0.08 h: 0.08 h after single oral dose of 50 mg/kg HP; for concentration at 0.08 h / concentration at 0.25 h / concentration at 0.5 h / concentration at 1 h / concentration at 1.5 h / concentration at 2 h / concentration at 3 h / concentration at 4 h / concentration at 8 h: read-out: Blood drug concentration; for concentration at 0.25 h: 0.25 h after single oral dose of 50 mg/kg HP; for concentration at 0.5 h: 0.5 h after single oral dose of 50 mg/kg HP; for concentration at 1 h: 1 h after single oral dose of 50 mg/kg HP; for concentration at 1.5 h: 1.5 h after single oral dose of 50 mg/kg HP; for concentration at 2 h: 2 h after single oral dose of 50 mg/kg HP; for concentration at 3 h: 3 h after single oral dose of 50 mg/kg HP; for concentration at 4 h: 4 h after single oral dose of 50 mg/kg HP; for concentration at 8 h: 8 h after single oral dose of 50 mg/kg HP; for half-life: elimination half-life; for half-life / AUC(0-inf) / AUC(0-t) / Cmax / Tmax / MRT last / MRT inf: single oral dose of 50 mg/kg HP; for MRT last: read-out: MRT(0−t); for MRT inf: read-out: MRT(0−∞)
Protocol: All of the animals were fasted for 12 h before receiving HP and were then allowed to eat for 4 h after administration. The dosing solutions used for the animal studies were prepared by dissolving the required amounts of HP in distilled water. […] The plasma was separated and stored at 2–8°C until analysis. […] Louis, MO, USA) and then mixed with 180 μL of acetonitrile (Merck, Darmstadt, Germany) to precipitate protein. After centrifugation, aliquots (10 μL each) of the supernatant were used for analysis. […] The mobile phase consisted of solvent A [0.1% formic acid (Dikma Technologies, Inc., CA, USA) in water] and solvent B [0.1% formic acid in methanol (Merck)]. The analytes were eluted at a flow rate of 0.2 mL/min, with the following gradient elution: from 0 to 0.6 min, 20% B; linear increase to 95% B in 0.2 min; 95% B for 4 min, decrease to 20% B in 0.2 min; and stabilization at initial conditions for 6 min. The mass spectrometer was set for multiple reaction monitoring and was operated in a positive-ion mode with an electrospray ionization source. Nitrogen was used as the curtain gas and the collision gas. The ion-spray voltage was set at 5,500 V, and the gas temperature at 500°C.

[2] = system: caspase 3, 7, 8, 9 in kidney tissue; assay: Tubular cell apoptosis and caspases in LPS-challenged kidneys (IHC, RT-qPCR, western blot); settings: MMF 10 mg/kg; magnitude less than HP at 40 mg/kg
Protocol: LPS from Escherichia coli 0111:B4 was purchased from Sigma-Aldrich (St. Louis, MO, USA), and freshly dissolved in sterile 0.9% NaCl solution buffer before i.p. injection. For the standard treatment experiment, low dosage of LPS was used for induction of kidney injury. Inbred, 16–18 g, 4–6-week-old, male C57BL/6 mice were purchased from the SPF Biotechnology Co. Ltd. (Beijing, China). The sham group received 10 mL/kg saline by oral gavagedaily during the experiment, and at day 3 received a saline sham injection (i.p.). The LPS model group was exposed to the same procedure as the sham group, except receiving an LPS (20 mg/kg) injection (i.p.) at day 3, instead of saline. […]
For cleaved caspase 3 immunohistochemical analysis, the endogenous peroxidase activity in each section was quenched with 3% H2O2. […] Labelling was detected with a biotin-conjugated goat anti-rabbit IgG and avidin-biotin peroxidase complex. Cleaved caspase-3-positive cells in cortexes were scored in 30 random × 400 high-power fields (HPFs) with a ZEISS Observer A1 microscope (ZEISS, Germany).
The mRNA levels of selected important chemokines and cytokines in the kidneys, such as TNF-α, IL-1β, IL-6, intercellular adhesion molecule 1 (ICAM-1), vascular cell adhesion molecule 1 (VCAM-1), and MCP-1, as well as caspase family members, such as caspase 3, caspase 7, caspase 8, and caspase 9, were quantified by RT-qPCR. […]

[3] = system: peripheral blood leukocytes; assay: Peripheral blood leukocyte counts after LPS injection; settings: LPS i.p. injection
Protocol: To understand the effect of HP on peripheral leukocytes in LPS-induced septic mice, peripheral […] was collected in heparin pretreated tubes by retro-orbital bleeding at 4, 8, 12, 24, and 48 h post-LPS injection, and the number of monocytes, lymphocytes, and neutrophils in the […] at different time points was examined by an Automatic Hematology Analyzer (Celltac E MEK-7222, Nihon Kohden, Japan). The detailed experimental procedure is shown in Figure 1C, which is similar to that used to analyze the effect of HP treatment on LPS-induced AKI.

[4] = system: macrophages and neutrophils in kidneys; assay: Flow cytometric determination of kidney leukocytes; settings: LPS-induced AKI mice, flow cytometry, N = 8
Protocol: To determine the effect of HP on leukocyte populations in septic kidneys, kidney single-cell suspensions were prepared and analyzed. Briefly, the single-cell suspensions were first incubated with anti-mouse CD45-APC-Cy7 antibody (eBioscience, USA) for 30 min on ice. After washing, the cells were stained for 15 min on ice with fluorochrome-labeled monoclonal antibodies against anti-mouse Ly6G-PE, CD11c-FITC, or F4/80-APC (eBioscience, USA) for detection of neutrophils or macrophages. Six-color fluorescence flow cytometric analyses were performed (FACS Verse, BD, USA), and the data were analyzed with the FlowJo program (Tree Star, Inc., Ashland, CA, USA).

Row | SMILES | Blood drug concentration [1] | concentration at 0.08 h [1] [µM] | concentration at 0.25 h [1] [µM] | concentration at 0.5 h [1] [µM] | concentration at 1 h [1] [µM] | concentration at 1.5 h [1] [µM] | concentration at 2 h [1] [µM] | concentration at 3 h [1] [µM] | concentration at 4 h [1] [µM] | concentration at 8 h [1] [µM] | half-life [1] [h] | AUC(0-inf) [1] [µM·h] | AUC(0-t) [1] [µM·h] | Cmax [1] [µM] | Tmax [1] [h] | MRT last [1] [h] | MRT inf [1] [h] | further results
1 | O=c1ccc2ccc(O[C@@H]3O[C@H](CO[C@@H]4OC[C@](O)(CO)[C@H]4O)[C@@H](O)[C@H](O)[C@H]3O)cc2o1 [apiosylskimmin] | – | – | – | – | – | – | – | – | – | – | – | – | – | – | – | – | – | concentration of plasma apiosylskimmin ([1]; mouse, in vivo, po, 50 mg/kg): too low to be determined
2 | COc1c(C)c2c(c(O)c1C/C=C(\C)CCC(=O)OCCN1CCOCC1)C(=O)OC2 [MMF, Mycophenolate mofetil] | – | – | – | – | – | – | – | – | – | – | – | – | – | – | – | – | – | tubular apoptosis in LPS-induced AKI [2]: ameliorated tubular apoptosis; peripheral blood monocytes at 48 h after LPS ([3]; HP 40 mg/kg, MMF 10 mg/kg, N = 8): significantly reduced peripheral blood monocytes; peripheral blood counts within the first 24 h after LPS ([3]; data not shown): did not change the peripheral blood counts; infiltration of CD45+ F4/80+ CD11c+ macrophages and CD45+Ly6G+ neutrophils into kidneys [4]: produced similar inhibitory results
3 | O=c1ccc2cc(O)c(O)cc2o1 [Esculetin, esculetin] | Not detectable | 0.98 ± 0.8 | 2.98 ± 1.24 | 3 ± 1.05 | 2.24 ± 0.4 | 2.25 ± 1.59 | 0.65 ± 0.22 | 0.68 ± 0.88 | 0.3 ± 0.16 | 0.12 ± 0.01 | 2.3 | 6.66 | 6.27 | 3 | 0.5 | 1.82 | 2.38 | –
4 | O=c1ccc2ccc(O)cc2o1 [Umbelliferone, umbelliferone] | Not detectable | 4.21 ± 2.21 | 9.12 ± 3.28 | 7.35 ± 2.04 | 3.36 ± 0.76 | 2.06 ± 0.79 | 1.45 ± 0.79 | 1.1 ± 1.3 | 0.59 ± 0.17 | 0.14 ± 0.14 | 1.69 | 12.2 | 11.8 | 9.12 | 0.25 | 1.58 | 1.82 | –

Source: paper PMC5735979, “Total Coumarins from Hydrangea paniculata Show Renal Protective Effects in Lipopolysaccharide-Induced Acute Kidney Injury via Anti-inflammatory and Antioxidant Activities” (Frontiers in Pharmacology, 2017)
